Data reported in patent US8501813B2, “γ-secretase inhibitor” (Kabushiki Kaisha Yakult Honsha, priority 2007, dated 2013).

Assays:
[1] = target: T1, γ-secretase (Homo sapiens, UniProt P49768); assay: Substrate specificity: β-Alcα secretion by HEK293 cells transfected with FLAG Alcα C150, anti-FLAG immunoprecipitation/western blot; format: cell-based; conditions: 0.2 μmol/L; for activity at 0.2 µM: HEK293, 24 h, FLAG Alcα C150, negative control = 100%, read-out: (ii) β-Alcα secretion rate of HEK293 cells
Method: (§1) Of families constituting human Alcadein (hereinafter, referred to as Alc) known as a substrate for γ-secretase to colocalize with APP in brain neurons, an artificial Alcα fragment (hereinafter, referred to as Alcα C150) whose first extracellular cleavage site and γ-secretase cleavage site were determined was used to study the substrate specificity of the γ-secretase inhibitor of the present invention. β-Alcα produced from a first cleavage construct of Alcα cannot be quantified by sELISA used in Aβ measurement. Therefore, proteins with an attached FLAG tag at the N termini of first cleavage constructs of Alcα and of C99 were expressed by cells. FLAG-Aβ-like peptides secreted into a medium were collected by immunoprecipitation using anti-FLAG antibodies and detected by western blotting using the antibodies. A specific method thereof is shown below.
(§2) HEK293 cells (ATCC) (1×10^7 cells/10 cm dish) cultured in 6 ml of 10% FCS-containing DMEM (Wako Pure Chemical Industries, Ltd.) were transfected with FLAG APP C99 pcDNA3.1 (the nucleotide sequence of its coding region is shown in SEQ ID NO: 2) (J. Biol. Chem., 2003, 278, 49448-49458 (which was prepared from pcDNA3-APPC99)) or with FLAG Alcα C150 pcDNA3.1 (the nucleotide sequence of its coding region is shown in SEQ ID NO: 3) (J. Biol. Chem., 2004, 279, 24343-24354 (which was the same as pcDNA3AlcαΔE)) using Lipofectamine 2000 (Invitrogen Corp.) according to the protocol included in the reagent. Each inhibitor and a positive control (γ-Secretase Inhibitor IX (DAPT)) (Calbiochem Contact Information) were separately added at a concentration of 0.2 or 2 μmol/L. The same dose of DMSO (Wako Pure Chemical Industries, Ltd.) thereas was added as a negative control. 24 hours later, the culture supernatants were collected, and samples were preliminarily purified using beads (100 μL of 50% (v/v) Protein-G Sepharose (GE Healthcare)). Then, 15 μL of 50% (v/v) anti-FLAG antibody M2 beads (Sigma-Aldrich Corp.) were added thereto, and the samples were incubated at 4° C. for 1 hour. The beads were collected by centrifugation and washed three times with a buffer (10 mM Tris-HCl [pH 8.0], 140 mM NaCl, 0.1% n-octyl glucoside, 0.025% sodium azide), and Aβ and β-Alcα in the medium were collected. The proteins were subjected to SDS-PAGE using a 15% Tris-Tricine gel (Anal Biochem., 1987, 166 (2), 368-379) and then transferred to a membrane. The membrane was boiled for 5 minutes in PBS. Then, anti-FLAG M2 antibodies (5 μg/ml) (Sigma-Aldrich Corp.) were added thereto, and the membrane was incubated, followed by detection using a western blotting detection reagent ECL (GE Healthcare). This signal was quantified using Versa-doc system (Bio-Rad Laboratories, Inc.) to calculate protein secretion rates (the protein secretion rate of the negative control is defined as 100%).

[2] = test system: C99 cells; assay: Cytotoxicity on C99 cells, cell viability by Cell Counting Kit-8; format: cell-based, human; conditions: 24 h
Method: The cytotoxicity of four test substances (TLVM-5, TLVM-7, TLVM-8, and TLVM-9) on the C99 cells was measured using a method shown below.
In the present test, a medium used for the C99 cells was 500 mL of a Dulbecco's Modified Eagle's Medium (DMEM, Sigma-Aldrich Corp.) supplemented with 55 ml of fetal bovine serum (Biosource), 5.5 ml of MEM non-essential amino acids (Gibco), and 5.5 ml of penicillin/streptomycin (Gibco).
The C99 cells were suspended at a concentration of 0.75×10^5 cells/ml in the medium. The suspension was added at a concentration of 100 μL (0.75×10^4 cells)/well to a 96-well collagen plate (Akita Sumitomo Bakelite Co., Ltd.) and cultured for 2 days. Then, the medium (corresponding to 50 μL/well) in the wells was removed, and a fresh medium was added thereto at a concentration of 30 μL/well. […] Then, the cell viability was measured using Cell Counting Kit-8 (Dojindo Laboratories).

[3] = target: T1, γ-secretase; assay: Substrate specificity: FLAG-Aβ secretion by HEK293 cells transfected with FLAG APP C99, anti-FLAG immunoprecipitation/western blot; format: cell-based; conditions: 0.2 μmol/L; for activity at 0.2 µM: HEK293, 24 h, FLAG APP C99, negative control = 100%, read-out: (i) Aβ secretion rate of HEK293 cells
Method: as §1, §2

SMILES | γ cleavage of the Alcα-C150, in words [1] | activity at 0.2 µM [1] | Cell viability of C99 cells ([2]; exposure 0.3 μmol/L) | Cell viability of C99 cells ([2]; exposure 1 μmol/L) | Cell viability of C99 cells ([2]; exposure 3 μmol/L) | Cell viability of C99 cells ([2]; exposure 10 μmol/L) | Cell viability of C99 cells ([2]; exposure 30 μmol/L) | Cell viability of C99 cells ([2]; exposure 100 μmol/L) | (i)/(ii) ratio, Aβ / β-Alcα secretion rates [3] | cleavage of APP-C99, in words [3] | activity at 0.2 µM [3]
CSCCC(NC(=O)C(NC(=O)C(CC(C)C)CC(O)C(NC(=O)OC(C)(C)C)C(C)O)C(C)C)C(=O)NCc1ccccc1 [TLVM-5, [5S-(tert-butoxycarbonylamino)-4R,6R-dihydroxy-2R-(2-methylpropyl)heptanoyl]-L-valyl-L-methionine benzylamide] | did not inhibit | 140% | 102% | 109% | 112% | 104% | 82% | 46% | 0.29 | specifically inhibited | 41%
CCCCNC(=O)C(CCSC)NC(=O)C(NC(=O)C(CC(C)C)CC(O)C(NC(=O)OC(C)(C)C)C(C)O)C(C)C [TLVM-7, [5S-(tert-butoxycarbonylamino)-4R,6R-dihydroxy-2R-(2-methylpropyl)heptanoyl]-L-valyl-L-methionine n-butylamide] | did not inhibit | 120% | 92% | 105% | 96% | 102% | 91% | 96% | 0.30 | specifically inhibited | 36%
CSCCC(NC(=O)C(NC(=O)C(CC(C)C)CC(O)C(NC(=O)OC(C)(C)C)C(C)O)C(C)C)C(=O)NC(C)c1ccccc1 [TLVM-8, [5S-(tert-butoxycarbonylamino)-4R,6R-dihydroxy-2R-(2-methylpropyl)heptanoyl]-L-valyl-L-methionine (S)-α-methylbenzylamide] | did not inhibit | 118% | 101% | 102% | 101% | 98% | 91% | 8% | 0.27 | specifically inhibited | 32%
CSCCC(NC(=O)C(NC(=O)C(CC(C)C)CC(O)C(NC(=O)OC(C)(C)C)C(C)O)C(C)C)C(=O)NCc1ccc(F)cc1 [TLVM-9, [5S-(tert-butoxycarbonylamino)-4R,6R-dihydroxy-2R-(2-methylpropyl)heptanoyl]-L-valyl-L-methionine 4-fluorobenzylamide] | did not inhibit | 158% | 104% | 106% | 106% | 105% | 93% | 57% | 0.27 | specifically inhibited | 43%
